Assay results published in patent US8399451B2, “Heterocyclic compounds” (Bristol-Myers Squibb Company, priority 2009, dated 2013).
Like-named read-outs stand apart in the source and are kept apart here.

Assays:
S1P1 [1] = molecular target: T1, S1P1 (Homo sapiens, UniProt P21453); test: Receptor [35S] GTPγS Binding Assay, membranes from S1P1/CHO cells; format: biochemical; design: expressed in transfected cells; host or cells: S1P1/CHO cells; conditions: for S1P3/S1P1 GTPγS (ratio of S1P3 GTPγS EC50 to S1P1 GTPγS EC50): selectivity ratio calculated from Table B, * may be greater than reported value due to S1P3 assay limits
Experimental: (§1) Receptor [35S] GTPγS Binding Assays
(§2) Membranes prepared from S1P1/CHO cells or EDG3-Ga15-bla HEK293T cells were added to the compound plate (40 μl/well, final protein 3 μg/well) with MULTIDROP®. [^35S]GTP (1250 Ci/mmol, Perkin Elmer) was diluted in assay buffer: 20 mM HEPES, pH7.5, 10 mM MgCl2, 150 mM NaCl, 1 mM EGTA, 1 mM DTT, 10 μM GDP, 0.1% fatty acid free BSA, and 10 μg/ml Saponin to 0.4 nM. 40 μl of the [^35S] GTP solution was added to the compound plate with a final concentration of 0.2 nM. […] At the end of incubation, all the mixtures in the compound plate were transferred to a 384 well FB filter plates via GPCR robot system. […] 30 μl of MicroScint 20 scintillation fluid was added to each well for counting at Packard TOPCOUNT®.

S1P3 = molecular target: T2, S1P3 (Homo sapiens, UniProt Q99500); test: Receptor [35S] GTPγS Binding Assay, membranes from EDG3-Ga15-bla HEK293T cells; format: biochemical; conditions: * detection limit 31,000 nM or 62,000 nM
T2 construct: expressed in transfected cells; host or cells: EDG3-Ga15-bla HEK293T cells
Experimental: as §1, §2

S1P1 [2] = molecular target: T1, S1P1; test: S1P1 Binding Assay (33P-S1P radioligand competition, membranes); design: expressed in transfected cells; host or cells: CHO cells; conditions: membranes from CHO cells expressing human S1P1; 0.03 nM 33P-S1P; rounded to two digits
Experimental: Membranes were prepared from CHO cells expressing human S1P1. Cells were dissociated in buffer containing 20 mM HEPES, pH 7.5, 50 mM NaCl, 2 mM EDTA and Protease Inhibitor cocktail (Roche), and disrupted on ice using the Polytron homogenizer. The homogenate was centrifuged at 20,000 rpm (48,000 G) and the supernatant was discarded. The membrane pellets were resuspended in buffer containing 50 mM HEPES, pH 7.5, 100 mM NaCl, 1 mM MgCl2, 2 mM EDTA and stored in aliquots at −80° C. after protein concentration determination.
Binding was performed for 45 minutes at room temperature, terminated by collecting the membranes onto GF/B filter plates, and radioactivity was measured by TOPCOUNT®. The competition data of the test compounds over a range of concentrations was plotted as percentage inhibition of radioligand specific binding.
The results in Table A were rounded to two digits.

circulating lymphocytes = test: Blood Lymphocyte Reduction Assay (BLR) in Rodents; format: in vivo; conditions: Lewis rats, oral, vs vehicle (PEG300)
Experimental: Blood Lymphocyte Reduction Assay (BLR) in Rodents
Lewis rats were dosed orally with test article (as a solution or suspension in the vehicle) or vehicle alone (polyethylene glycol 300, “PEG300”). Blood was drawn at 4 hr by retro-orbital bleeding. Blood lymphocyte counts were determined on an ADVIA® 120 Hematology Analyzer (Siemens Healthcare Diagnostics). The results were measured as a reduction in the percentage of circulating lymphocytes as compared to the vehicle treated group at the 4 hr measurement.

[3] = membranes from S1P1/CHO cells, read-out: S1P1 GTPγS EC50

T2 sequence (Q99500 whole entry): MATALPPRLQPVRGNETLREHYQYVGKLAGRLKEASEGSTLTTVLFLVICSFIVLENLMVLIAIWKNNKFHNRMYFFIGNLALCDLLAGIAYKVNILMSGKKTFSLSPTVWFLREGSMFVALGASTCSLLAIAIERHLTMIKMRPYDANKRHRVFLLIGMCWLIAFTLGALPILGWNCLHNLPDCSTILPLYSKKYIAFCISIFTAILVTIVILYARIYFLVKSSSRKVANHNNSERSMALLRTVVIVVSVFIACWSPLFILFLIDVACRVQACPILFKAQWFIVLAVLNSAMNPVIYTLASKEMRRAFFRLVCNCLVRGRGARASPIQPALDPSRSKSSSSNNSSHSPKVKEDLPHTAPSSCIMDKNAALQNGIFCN
T1 sequence (P21453 whole entry): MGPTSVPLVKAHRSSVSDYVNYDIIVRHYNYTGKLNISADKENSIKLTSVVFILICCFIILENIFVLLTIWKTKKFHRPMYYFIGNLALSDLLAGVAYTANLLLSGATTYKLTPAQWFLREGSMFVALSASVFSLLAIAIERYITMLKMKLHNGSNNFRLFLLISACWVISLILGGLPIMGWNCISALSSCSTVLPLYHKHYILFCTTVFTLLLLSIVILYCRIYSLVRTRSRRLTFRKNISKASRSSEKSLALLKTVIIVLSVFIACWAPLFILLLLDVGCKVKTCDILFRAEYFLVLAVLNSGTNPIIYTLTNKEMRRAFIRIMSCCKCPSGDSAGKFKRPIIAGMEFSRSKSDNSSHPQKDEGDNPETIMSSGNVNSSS

`CCCc1c(-c2nc(-c3ccc(CCN4CCC[C@H](C(=O)O)C4)cc3)no2)noc1-c1ccccc1` [Comparative Compound 119, (S)-1-(4-(5-(5-Phenyl-4-propylisoxazol-3-yl)-1,2,4-oxadiazol-3-yl)phenethyl)piperidine-3-carboxylic acid, reference compound] was tested, and the EC50 (S1P1 [1]; read-out: S1P1 GTPγS EC50 value) was 31000 nM, the “S1P3/S1P1 GTPγS (ratio of S1P3 GTPγS EC50 to S1P1 GTPγS EC50)” value (S1P1 [1]) was 2.3 and the “S1P3/S1P1 GTPγS (ratio of S1P3 GTPγS EC50 to S1P1 GTPγS EC50)” value (S1P1 [1]; listed as Comp. 119) was 2.3*. The EC50 (S1P3) was over 62000 nM and the IC50 (S1P1 [2]) was 420 nM.

`CCCc1c(-c2nc(-c3ccc(C(O)CN4CC(C(=O)O)C4)cc3)no2)noc1-c1ccccc1` (stereo not drawn) [Example 1, 1-(2-Hydroxy-2-(4-(5-(5-phenyl-4-propylisoxazol-3-yl)-1,2,4-oxadiazol-3-yl)phenyl)ethyl)azetidine-3-carboxylic acid] showed an IC50 (S1P1 [2]) of 0.45 nM.

With `CCCc1c(-c2nc(-c3ccc(C(O)CN4CCCCC4C(=O)O)cc3)no2)noc1-c1ccccc1` (stereo not drawn) [Example 2, 1-(2-Hydroxy-2-(4-(5-(5-phenyl-4-propylisoxazol-3-yl)-1,2,4-oxadiazol-3-yl)phenyl)ethyl)piperidine-2-carboxylic acid] the IC50 (S1P1 [2]) was 2.2 nM.

With `CCCc1c(-c2nc(-c3ccc(C(O)CN4CCC[C@H](C(=O)O)C4)cc3)no2)noc1-c1ccccc1` (stereo partly drawn) [Example 4, (3S)-1-(2-Hydroxy-2-(4-(5-(5-phenyl-4-propylisoxazol-3-yl)-1,2,4-oxadiazol-3-yl)phenyl)ethyl)piperidine-3-carboxylic acid] the “% Reduction in Lymphocytes at 4 hr.” value (circulating lymphocytes; dose 3 mg/kg) was 71%.

Molecule `CCCc1c(-c2nc(-c3ccc(C(O)CN4CC[C@@H]4C(=O)O)cc3)no2)noc1-c1ccccc1` (stereo partly drawn) [Example 7, (2R)-1-(2-Hydroxy-2-(4-(5-(5-phenyl-4-propylisoxazol-3-yl)-1,2,4-oxadiazol-3-yl)phenyl)ethyl)azetidine-2-carboxylic acid] has an IC50 (S1P1 [2]) of 12 nM.

`CCCc1c(-c2nc(-c3ccc(C(O)CN4CCOC(C(=O)O)C4)cc3)no2)noc1-c1ccccc1` (stereo not drawn) [Example 11, 4-(2-Hydroxy-2-(4-(5-(5-phenyl-4-propylisoxazol-3-yl)-1,2,4-oxadiazol-3-yl)phenyl)ethyl)morpholine-2-carboxylic acid] showed an IC50 (S1P1 [2]) of 4.8 nM.

`O=C(O)[C@H]1CCCN(C[C@@H](O)c2ccc(-c3noc(-c4onc(-c5ccccc5)c4C(F)(F)F)n3)cc2)C1` [Example 14, (S)-1-((S)-2-Hydroxy-2-(4-(5-(3-phenyl-4-(trifluoromethyl)isoxazol-5-yl)-1,2,4-oxadiazol-3-yl)phenyl)ethyl)piperidine-3-carboxylic acid] was tested, and the “% Reduction in Lymphocytes at 4 hr.” value (circulating lymphocytes; dose 3 mg/kg) was 83%.

`CC(O)(CN1CCC[C@H](C(=O)O)C1)c1ccc(-c2noc(-c3onc(-c4ccccc4)c3C(F)(F)F)n2)cc1` (stereo partly drawn) [Example 17, (3S)-1-(2-Hydroxy-2-(4-(5-(3-phenyl-4-(trifluoromethyl)isoxazol-5-yl)-1,2,4-oxadiazol-3-yl)phenyl)propyl)piperidine-3-carboxylic acid] was tested, and the EC50 (S1P1 [1]; [3]) was 320 nM, the “S1P3/S1P1 GTPγS (ratio of S1P3 GTPγS EC50 to S1P1 GTPγS EC50)” value (S1P1 [1]) was 3.8 and the EC50 (S1P3) was 1200 nM. It also gave an IC50 (S1P1 [2]) of 28 nM.

`O=C(O)C[C@H]1CCCN(C[C@@H](O)c2ccc(-c3noc(-c4onc(-c5ccccc5)c4C(F)(F)F)n3)cc2)C1` [Example 18, 2-((3R)-1-(2-Hydroxy-2-(4-(5-(3-phenyl-4-(trifluoromethyl)isoxazol-5-yl)-1,2,4-oxadiazol-3-yl)phenyl)ethyl)piperidin-3-yl)acetic acid] was tested, and the “% Reduction in Lymphocytes at 4 hr.” value (circulating lymphocytes; dose 1 mg/kg) was 82%.

With `CCCc1c(-c2nc(-c3ccc(C(O)CN4CCCC(C(=O)N(CC)CC)C4)cc3)no2)noc1-c1ccccc1` (stereo not drawn) [Example 24, N,N-Diethyl-1-(2-hydroxy-2-(4-(5-(5-phenyl-4-propylisoxazol-3-yl)-1,2,4-oxadiazol-3-yl)phenyl)ethyl)piperidine-3-carboxamide] the EC50 (S1P1 [1]; [3]) was 410 nM, the “S1P3/S1P1 GTPγS (ratio of S1P3 GTPγS EC50 to S1P1 GTPγS EC50)” value (S1P1 [1]) was 8.6 and the EC50 (S1P3) was 3500 nM. For the same molecule, the IC50 (S1P1 [2]) was 43 nM.

`O=C(O)[C@H]1CCCN(CC(O)c2ccc(-c3noc(-c4onc(-c5ccccc5)c4C(F)(F)F)n3)c(C(F)(F)F)c2)C1` (stereo partly drawn) [Example 26, (3S)-1-(2-Hydroxy-2-(4-(5-(3-phenyl-4-(trifluoromethyl)isoxazol-5-yl)-1,2,4-oxadiazol-3-yl)-3-(trifluoromethyl)phenyl)ethyl)piperidine-3-carboxylic acid] gave an IC50 (S1P1 [2]) of 14 nM.

With `O=C(O)CC1CN(CC(O)c2ccc(-c3noc(-c4onc(-c5ccccc5)c4C(F)(F)F)n3)cc2)C1` (stereo not drawn) [Example 27, 2-(1-(2-Hydroxy-2-(4-(5-(3-phenyl-4-(trifluoromethyl)isoxazol-5-yl)-1,2,4-oxadiazol-3-yl)phenyl)ethyl)azetidin-3-yl)acetic acid] the IC50 (S1P1 [2]) was 14 nM.

Work on `O=C(O)C1CN(CC(O)c2ccc(-c3noc(-c4onc(-c5ccccc5)c4C(F)(F)F)n3)cc2)CCO1` (stereo not drawn) [Example 28, 4-(2-Hydroxy-2-(4-(5-(3-phenyl-4-(trifluoromethyl)isoxazol-5-yl)-1,2,4-oxadiazol-3-yl)phenyl)ethyl)morpholine-2-carboxylic acid] yielded an IC50 (S1P1 [2]) of 31 nM.

In the case of `O=C(O)CCC1CCCN(CC(O)c2ccc(-c3noc(-c4onc(-c5ccccc5)c4C(F)(F)F)n3)cc2)C1` (stereo not drawn) [Example 40, 3-(1-(2-Hydroxy-2-(4-(5-(3-phenyl-4-(trifluoromethyl)isoxazol-5-yl)-1,2,4-oxadiazol-3-yl)phenyl)ethyl)piperidin-3-yl)propanoic acid], the “% Reduction in Lymphocytes at 4 hr.” value (circulating lymphocytes; dose 5.5 mg/kg) is reported as 80%.
